Source: patent US20070167408A1, “NOVEL ALKYL PHOSPHOLIPID DERIVATIVES WITH REDUCED CYTOTOXICITY AND USES THEREOF” (ZENTARIS GmbH, priority 2005, published 2007)
Values after ≈ are worked out from the molar mass of the structure shown. Blank lines part the entries; values can stand above or below the compound they belong to.

Columns and labels:
[1] = tested on: Candida parapsilosis ATCC 22019; assay: Anti-fungal broth microdilution (MIC), fungus G; type: cell-based; conditions: yeast protocol, more than 80% inhibition, 48 h
Procedure: (§1) Anti-fungal activity of selected compounds of the invention was assessed by means of anti-fungal susceptibility tests as follows.
(§2) The antifungal activities of the compounds of the invention against different fungi were measured according to standard broth microdilution methods of the US National Committee for Clinical Laboratory standards (NCCLS) for yeasts (NCCLS document M27-A, 1997) and filamentous fungi (NCCLS document M38-A, 2002).
(§3) Stock solutions of compounds of the invention were freshly prepared on the days of experiments equal to 1.28 mg/10 ml media. Serial dilutions were performed to achieve the following testing concentrations: 64 μg/ml, 32 μg/ml, 16 μg/ml, 8 μg/ml, 4 μg/ml, 2 μg/ml, 1 μg/ml, 0.5 μg/ml, 0.25 μg/ml and 0.125 μg/ml.
(§4) An inoculum of 10^6 CFU/ml of the fungi strain was prepared in the appropriate medium and transferred to test tubes for incubation.
(§5) The method is used to determine the minimum inhibitory concentrations (MIC) of drugs on fungi strains. […] For the filamentous fungi protocol, MIC determination took place after 48 to 72 h of culture at 35° C. and was defined at that concentration which produced more than 50% visible growth inhibition.

[2] = tested on: Cryptococcus gattii ATCC 32608; assay: Anti-fungal broth microdilution (MIC), fungus J; type: cell-based; conditions: yeast protocol, more than 80% inhibition, 48 h
Procedure: as §1, §2, §3, §4, §5

[3] = tested on: Cryptococcus neoformans ATCC 90112; assay: Anti-fungal broth microdilution (MIC), fungus H; type: cell-based; conditions: yeast protocol, more than 80% inhibition, 48 h
Procedure: as §1, §2, §3, §4, §5

[4] = tested on: Candida albicans ATCC 90028; assay: Anti-fungal broth microdilution (MIC), fungus E; type: cell-based; conditions: yeast protocol, more than 80% inhibition, 48 h
Procedure: as §1, §2, §3, §4, §5

[5] = tested on: Aspergillus fumigatus 322-384; assay: Anti-fungal broth microdilution (MIC), fungus B; type: cell-based; conditions: filamentous protocol, more than 50% growth inhibition, 48 to 72 h
Procedure: as §1, §2, §3, §4, §5

[6] = tested on: Candida albicans ATCC 10231; assay: Anti-fungal broth microdilution (MIC), fungus D; type: cell-based; conditions: yeast protocol, more than 80% inhibition, 48 h
Procedure: as §1, §2, §3, §4, §5

[7] = tested on: Cryptococcus neoformans H99; assay: Anti-fungal broth microdilution (MIC), fungus I; type: cell-based; conditions: yeast protocol, more than 80% inhibition, 48 h
Procedure: as §1, §2, §3, §4, §5

Candida albicans TS3 = assay: Anti-fungal broth microdilution (MIC), fungus F; type: cell-based; conditions: yeast protocol, more than 80% inhibition, 48 h
Procedure: as §1, §2, §3, §4, §5

[8] = tested on: Aspergillus fumigatus ATCC 204305; assay: Anti-fungal broth microdilution (MIC), fungus A; type: cell-based; conditions: filamentous protocol, more than 50% growth inhibition, 48 to 72 h
Procedure: as §1, §2, §3, §4, §5

[9] = tested on: Aspergillus fumigatus 040-200167; assay: Anti-fungal broth microdilution (MIC), fungus C; type: cell-based; conditions: filamentous protocol, more than 50% growth inhibition, 48 to 72 h
Procedure: as §1, §2, §3, §4, §5

[10] = tested on: PC3, RKOp21 and SKOV-3 cell lines; assay: XTT cytotoxicity assay, mean over all three cell lines; type: cell-based, human; conditions: mean value over all three cell lines
Procedure: Following 2 days of continuous drug exposure 50 μl of freshly prepared XTT-PMS solution {2% 0.386 mg/ml PMS (N-Methyl Dibenzopyrazine Methylsulphate; Sigma, Cat. No. […] Serva, Cat. No. 38450) in RPMI 1640 medium without phenol red} was added to the wells. To measure the proportion of living cells, the cells were incubated for 3 h with XTT-PMS reagent at 37° C., 5% CO2, humidified atmosphere allowing to form the formazan salt. […] Inhibition curves were generated and IC50 values calculated by using GraphPad Prism. In the following table 7 cytotoxicity results (% inhibition of cell growth) obtained in the second set of experiments for selected compounds of the invention are presented in comparison to examples of the prior art (perifosine, miltefosine). The results presented are individual values for the respective cell line as well as the mean value over all three cell lines tested.

[11] = tested on: RKOp21 (human colon adenocarcinoma) cells; assay: XTT cytotoxicity assay, RKOp21 cells; type: cell-based; conditions: Homo sapiens; 31.6 μM, second set of experiments; read-out: RKOp21 % INH [31.6 μM]
Procedure: (§6) Cytotoxicity of selected compounds of the invention against different mammalian cell lines was assessed as follows.
(§7) Human tumor cell lines KB/HeLa (ATCC CCL17, human cervix carcinoma), PC3 (ATCC CRL1435, human prostate carcinoma) and RKOp21 (human colon adenocarcinoma; Schmidt et al., Oncogene 2000, 19: 2423-2429) cells were used in an automated XTT screening assay for the assessment of cytotoxicity.
(§8) The XTT assay quantifies cellular metabolic activity which correlates with cell viability and cell number. Test compounds (selected compounds of the invention and known substances as controls) are dissolved in culture medium at 600 μM and added to the tumor cells in 10 different concentrations in a semi-logarithmic fashion starting from 100 μM as highest concentration.
(§9) In a second set of experiments employing PC3, RKOp21 and SKOV-3 (ATCC HTB-77, human ovary adenocarcinoma) cells, test and reference compounds were dissolved in 70% Ethanol/30% H2O in a stock concentration of 10 mM and diluted in cell culture medium to yield either 31.6 μM (PC3 and RKOp21) or 100 μM (SKOV-3) final concentration.
(§10) 48 h later cellular metabolic activity of cells treated with test compounds is quantified by measurement of the absorbance at 490 nm (conversion of XTT dye) in comparison to untreated control cells (100% viability).
(§11) KB/HeLa and PC3 cells were cultivated in RPMI 1640 medium (Gibco, Cat. No. 42401-018) supplemented with 10% heat inactivated fetal calf serum (FCS, Biochrom AG, Cat. No. S0115), 2 mM L-glutamine (Gibco, Cat. No. 25030-24) and 2% Penicillin-Streptomycin (PenStrep, Gibco, Cat. No. 15140-122). RKOp21 cells were grown in DMEM+GlutaMAXTM-I medium (Gibco, Cat. No. 61965-026) supplemented with 10% heat inactivated fetal calf serum (FCS, Biochrom AG, Cat. No. S0115), 2 mM L-glutamine (Gibco, Cat. No. 25030-24), 2% Penicillin-Streptomycin (PenStrep, Gibco, Cat. No. 15140-122) and 1% 1M HEPES (Gibco, Cat. No. 15630-056). All cells were cultured at 37° C. in 5% CO2 humidified air.
(§12) On the first day of the experiment cells were harvested from exponential phase cultures by trypsination, counted and plated into 96 well flat-bottom micro titer plates depending on the cell line as listed below:
(§13) After a 24 h recovery to allow the cells to resume exponential growth, the test compounds were diluted immediately prior to use and transferred in 25 μl volume to the wells.
(§14) Following 2 days of continuous drug exposure 50 μl of freshly prepared XTT-PMS solution {2% 0.386 mg/ml PMS (N-Methyl Dibenzopyrazine Methylsulphate; Sigma, Cat. No. P9625) in PBS+98% 1 mg/ml XTT (Sodium 2,3-bis(2-methoxy-4-nitro-5-sulfophenyl)-5-[(phenylamino)carbonyl]-2H-Tetrazolium; Serva, Cat. No. 38450) in RPMI 1640 medium without phenol red} was added to the wells. To measure the proportion of living cells, the cells were incubated for 3 h with XTT-PMS reagent at 37° C., 5% CO2, humidified atmosphere allowing to form the formazan salt. The amount of soluble formazan salt produced by cellular reduction of XTT is quantified by measuring the absorbance at 490 nm using the Biomek® 2000 ELISA plate reader. %-inhibition (cytotoxicity) of each test compound was calculated in relation to untreated control cells. Inhibition curves were generated and IC50 values calculated by using GraphPad Prism.

[12] = tested on: Bacteroides fragilis DSM 2151 (ATCC 25285); assay: Anti-bacterial bouillon microdilution assay (MIC), bacterium E; type: cell-based; conditions: anaerob, 24 h
Procedure: (§15) Selected compounds of the invention were tested in a bouillon microdilution assay method according to the DIN 58940 (www.din.de) guidelines for determination of susceptibility of bacterial strains with regard to cell growth inhibition. The assay method quantifies bacterial cell growth which corresponds to the turbidity of the liquid culture medium by photometric measurement carried out at 595 nm.
(§16) The method of MIC determination was performed according to DIN 58940-5. The volumina were adapted according to the microdilution method as described in DIN 58940-7 guideline.
(§17) Dependent on water solubility, compounds of the invention were dissolved either in water or ethanol in a concentration of 10 mg/ml. Subsequently, the stock was further diluted in water to a concentration of 512 μg/ml. The following serial dilutions (factor 2) were performed in water resulting in the following […] testing concentrations: 256 μg/ml, 128 μg/ml, 64 μg/ml, 32 μg/ml, 16 μg/ml, 8 μg/ml, 4 μg/ml, 2 μg/ml, 1 μg/ml, 0.5 μg/ml, 0.25 μg/ml and 0.125 μg/ml. Diluted compounds of the invention were transferred in 100 μl volume to the microtiter plate wells.
(§18) Pre-cultures of bacteria were grown in appropriate liquid media (refer to ATCC webpage, www.atcc.org) and afterwards were inoculated in corresponding liquid medium. 100 μl of the inoculums [adjusted to an amount of app. 1×10^6 microorganisms per ml (range of 10^5-10^8 microorganisms per ml)] were added to each of the testing compound concentrations and cultivated under the appropriate conditions.
(§19) Before and after incubation, bacterial growth was determined by photometric analysis against a positive control containing growing bacteria without compound and a sterile/negative control containing only the medium.

[13] = tested on: Moraxella catarrhalis DMS 11994 (ATCC 43617); assay: Anti-bacterial bouillon microdilution assay (MIC), bacterium D; type: cell-based; conditions: ATCC43617, 24 h
Procedure: as §15, §16, §17, §18, §19

[14] = tested on: PC3 (human prostate carcinoma) cells; assay: XTT cytotoxicity assay, PC3 cells; type: cell-based; conditions: Homo sapiens, PC-3; 31.6 μM, second set of experiments; read-out: PC3 % INH [31.6 μM]
Procedure: as §6, §7, §8, §9, §10, §11, §12, §13, §14

[15] = tested on: SKOV-3 (human ovary adenocarcinoma) cells; assay: XTT cytotoxicity assay, SKOV-3 cells; type: cell-based; conditions: Homo sapiens, SK-OV-3, second set of experiments, read-out: SKOV-3 % INH [100 μM]
Procedure: On the first day of the experiment cells were harvested from exponential phase cultures by trypsination, counted and plated into 96 well flat-bottom micro titer plates depending on the cell line as listed below: [table] After a 24 h recovery to allow the cells to resume exponential growth, the test compounds were diluted immediately prior to use and transferred in 25 μl volume to the wells. Following 2 days of continuous drug exposure 50 μl of freshly prepared XTT-PMS solution {2% 0.386 mg/ml PMS (N-Methyl Dibenzopyrazine Methylsulphate; Sigma, Cat. No. […] Serva, Cat. No. 38450) in RPMI 1640 medium without phenol red} was added to the wells. To measure the proportion of living cells, the cells were incubated for 3 h with XTT-PMS reagent at 37° C., 5% CO2, humidified atmosphere allowing to form the formazan salt. […] Inhibition curves were generated and IC50 values calculated by using GraphPad Prism.

MIC [1]: 0.75 µg/mL
MIC [2]: 0.75 µg/mL
MIC [3]: 2 µg/mL
MIC [4]: 0.75 µg/mL
MIC ([5]; Aspergillus fumigatus, 322384): 2 µg/mL
MIC [6]: 0.75 µg/mL
MIC [7]: 1.5 µg/mL
MIC (Candida albicans TS3): 1 µg/mL
MIC ([8]; Aspergillus fumigatus, ATCC204305): 2 µg/mL
MIC ([9]; Aspergillus fumigatus, 040200167): 2 µg/mL
Compound: CCCCCCCCCCCCCCCCOCCCOP(=O)([O-])OCC[N+](C)(C)C [Compound 8, Phosphoric acid 3-hexadecyloxy-propyl ester 2-trimethyl-ammonium-ethyl ester]

MIC [12]: 128 µg/mL (≈ 247 µM)
MIC [13]: 8 µg/mL (≈ 15.5 µM)
Compound: CCCCCCCCCCCCCCCCOP(=O)([O-])OCC[N+]1(C)C=CC(C(=O)OCC)CC1 (stereo not shown) [Compound 266]
Mean % INH [10]: 13.6%
inhibition at 31.6 µM [11]: 6.6%
inhibition at 31.6 µM [14]: 25.8%
inhibition at 100 µM [15]: 8.5%

MIC [12]: 128 µg/mL (≈ 295 µM)
Compound: CCCCCCCCCCCCCCCCOP(=O)([O-])OCC[N+]1(C)CCCC1 [Compound 90]
Mean % INH [10]: 54.0%
inhibition at 31.6 µM [11]: 51.9%
inhibition at 31.6 µM [14]: 55.5%
inhibition at 100 µM [15]: 54.6%

MIC, fungus G [1]: 64 µg/mL (≈ 131 µM)
MIC, fungus J [2]: 1.5 µg/mL (≈ 3.06 µM)
MIC, fungus H [3]: 4 µg/mL (≈ 8.17 µM)
MIC, fungus E [4]: >64 µg/mL
MIC, fungus B [5]: >64 µg/mL
MIC, fungus D [6]: >64 µg/mL
MIC, fungus I [7]: 3 µg/mL (≈ 6.13 µM)
MIC, fungus F (Candida albicans TS3): 64 µg/mL (≈ 131 µM)
MIC, fungus A [8]: >64 µg/mL
MIC, fungus C [9]: >64 µg/mL
Compound: CCCCCCCC/C=C\CCCCCCCCCCCCOP(=O)([O-])OCC[N+](C)(C)C [ErPC, (13Z)-docosenylphosphocholine, reference compound]
